# Test results: PubChem BioAssay AID2060359 (Molecular Pharmacology Branch, DTP, NCI, 2025)
# pIC50: −log10 of the molar value.
# System: 276233-004-R-J1-PDC spheroids with HUVEC/MSC, viability
# Assay: Anticancer human tumor 276233-004-R-J1-PDC patient-derived colon adenocarcinoma cell line growth inhibition [TAK]
# Conditions: for pIC50: curve of first compound; for viability, T/C: stronger effect = lower value
# Source text: Combinatorial screen of targeted agents with TAK-243 and ipatasertib in multi-cell type tumor spheroids
# A high-throughput screen of multi-cell type tumor spheroids was designed to identify active combinations of targeted small molecules and TAK-243 or ipatasertib. Complex spheroids include a stromal component modeled by human endothelial cells (HUVEC) and fibroblasts modeled by human mesenchymal stem cells (MSCs). The concentration ranges selected for each drug and investigational agent were based upon clinically achievable concentrations if the clinical Cmax of the agent was known.
# Compounds. The drugs and investigational agents: TAK-243 (785004), ipatasertib (767898), everolimus (733504), selumetinib (741078), bortezomib (756655), trametinib (758246), ixazomib (758254), vemurafenib (761431), dabrafenib (764134), sapanisertib (764658), alpelisib (765974), and copanlisib (816437), were obtained from the National Cancer Institute (NCI) Developmental Therapeutics Program Chemical Repository. The FDA-approved anticancer drug set is available from the NCI Developmental Therapeutics Program. […] The stock solutions were prepared in dimethyl sulfoxide (DMSO, Sigma-Aldrich, St. Louis, MO, cat. D2650) at 800-fold the tested concentration and stored at -70 degrees C prior to their use. All drugs and investigational agents were tested over a range starting from a high concentration at or near the clinical Cmax and decreasing in half-log increments. If the clinical Cmax for an agent had not been determined, the highest concentration tested was 10 microM.
# NCI60 Cell Culture. NCI60 cell lines were obtained from the NCI Developmental Therapeutics Program Tumor Repository. For each lot of cells, the Repository performed Applied Biosystems AmpFLSTR Identifiler testing with PCR amplification to confirm consistency with the published Identifier STR profile for each cell line. Cells were kept in continuous culture for no more than 20 passages. The optimal seeding densities for each of the cell lines at each time point assessed were determined prior to performing the concentration response studies. Briefly, the NCI60 human tumor lines were grown as monolayers in RPMI 1640 medium supplemented with 10% FBS and 2 mmol/L L-glutamine.
# An additional 2 lines were from the NCI60 cell line panel including melanomas, MALME-3M and SK-MEL-2. Pooled donor human umbilical vein endothelial cells (HUVEC, Lonza, cat. CC-2519) and human mesenchymal stem cells (hMSC, Lonza, cat. PT-2501) were purchased from Lonza (Walkersville, MD).
# PDMR cell lines were grown in complete medium (DC medium): Dulbecco's modified Eagle's medium (DMEM)/F12 supplemented with 5% fetal bovine serum (FBS), 2 mM L-glutamine, 100 U/mL penicillin and 100 µg/ml streptomycin, 0.4 µg/ml hydrocortisone, 10 ng/ml epidermal growth factor (EGF) recombinant human protein, 24 µg/mL adenine, and 0.1 mg/mL primocin. During culture from frozen stock vials, PDMR cells were cultured in the same medium containing 10 µM Y-27632 (see Table 3). The PDCs were cultured in complete DMEM/F12 media without 10 microM Y-27632 dihydrochloride for at least two passages prior to the screen. The pooled donor HUVEC and hMSC were cultured in endothelial cell growth medium 2 (PromoCell, Heidelberg, Germany, cat. C-22011) and mesenchymal stem cell growth medium 2 (PromoCell, cat. C-28009), respectively. For all experiments, HUVEC and hMSC were used at passages </=5.
# For the pre-screen, cell seeding densities were determined from a titration spanning the range from 5,000 to 313 cells per well. The mct-spheroids including 60% malignant cells, 25% HUVEC and 15% MSC dispensed as a mixture into U-bottom Ultra-Low Attachment 384-well plates (Corning, NY)
# High-throughput Drug Combination Screening.
# Prior to their inoculation into 384-well plates, malignant cells, HUVEC, and hMSC were removed from T flasks using TrypLE express (Thermo Fisher Scientific, cat. 12605036) and harvested by centrifugation for 5 min at 233 x g. […]
# 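Further: spheroids exposed to drugs for seven days before the viability read.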
structure (smiles),measurement,setting,value
CC(=O)Nc1cccc(-n2c(=O)n(C3CC3)c(=O)c3c(Nc4ccc(I)cc4F)n(C)c(=O)c(C)c32)c1 + CC(C)NCC(C(=O)N1CCN(c2ncnc3c2C(C)CC3O)CC1)c1ccc(Cl)cc1,pIC50,second compound 0.3 µM,8.09
same,pIC50,second compound 0.949 µM,8.28
same,pIC50,second compound 3 µM,8.49
same,pIC50,second compound 9.49 µM,8.74
same,pIC50,second compound 30 µM,9.49
same,"viability, T/C","second compound 0.3 µM, first compound 94.9 pM",101%
same,"viability, T/C","second compound 0.3 µM, first compound 0.0003 µM",86.7%
same,"viability, T/C","second compound 0.3 µM, first compound 0.000949 µM",67.2%
same,"viability, T/C","second compound 0.3 µM, first compound 0.003 µM",73.8%
same,"viability, T/C","second compound 0.3 µM, first compound 0.00949 µM",48.8%
same,"viability, T/C","second compound 0.3 µM, first compound 0.03 µM",28.6%
same,"viability, T/C","second compound 0.949 µM, first compound 94.9 pM",80.8%
same,"viability, T/C","second compound 0.949 µM, first compound 0.0003 µM",84.8%
same,"viability, T/C","second compound 0.949 µM, first compound 0.000949 µM",77.1%
same,"viability, T/C","second compound 0.949 µM, first compound 0.003 µM",55.4%
same,"viability, T/C","second compound 0.949 µM, first compound 0.00949 µM",43.2%
same,"viability, T/C","second compound 0.949 µM, first compound 0.03 µM",26%
same,"viability, T/C","second compound 3 µM, first compound 94.9 pM",77.9%
same,"viability, T/C","second compound 3 µM, first compound 0.0003 µM",61.6%
same,"viability, T/C","second compound 3 µM, first compound 0.000949 µM",64%
same,"viability, T/C","second compound 3 µM, first compound 0.003 µM",48.9%
same,"viability, T/C","second compound 3 µM, first compound 0.00949 µM",43.5%
same,"viability, T/C","second compound 3 µM, first compound 0.03 µM",27.1%
same,"viability, T/C","second compound 9.49 µM, first compound 94.9 pM",72.6%
same,"viability, T/C","second compound 9.49 µM, first compound 0.0003 µM",69.3%
same,"viability, T/C","second compound 9.49 µM, first compound 0.000949 µM",53.5%
same,"viability, T/C","second compound 9.49 µM, first compound 0.003 µM",45.5%
same,"viability, T/C","second compound 9.49 µM, first compound 0.00949 µM",33%
same,"viability, T/C","second compound 9.49 µM, first compound 0.03 µM",18.4%
same,"viability, T/C","second compound 30 µM, first compound 94.9 pM",45.8%
same,"viability, T/C","second compound 30 µM, first compound 0.0003 µM",55.1%
same,"viability, T/C","second compound 30 µM, first compound 0.000949 µM",45.3%
same,"viability, T/C","second compound 30 µM, first compound 0.003 µM",27.8%
same,"viability, T/C","second compound 30 µM, first compound 0.00949 µM",29.6%
same,"viability, T/C","second compound 30 µM, first compound 0.03 µM",33.6%
